# Measured values from ChEMBL document CHEMBL1151527, “Anti-pneumocystis activity of bis-amidoximes and bis-o-alkylamidoximes prodrugs” (1996).
# How the values were obtained:
# Assay type in all cases: functional
# Rattus norvegicus [1] = assay: Percent salinte-treated controls were evaluated against Pneumocystis carinii in immunosuppressed rats at a dose of 33 umol/kg/day administered orally.
# Rattus norvegicus [2] = assay: In vivo toxicity against Pneumocystis carinii in immunosuppressed rats at a dose of 33 umol/kg/day administered orally.
# Rattus norvegicus [3] = assay: Percent salinte-treated controls were evaluated against Pneumocystis carinii in immunosuppressed rats at a dose of 22 umol/kg/day administered by tail vein injection.
# Rattus norvegicus [4] = assay: In vivo toxicity against Pneumocystis carinii in immunosuppressed rats at a dose of 22 umol/kg/day administered by tail vein injection.
# Rattus norvegicus [5] = assay: Percent salinte-treated controls were evaluated against Pneumocystis carinii in immunosuppressed rats at a dose of 5.5 umol/kg/day administered by tail vein injection.
# Rattus norvegicus [6] = assay: Percent salinte-treated controls were evaluated against Pneumocystis carinii in immunosuppressed rats at a dose of 5.5 umol/kg/day administered orally.
# Rattus norvegicus [7] = assay: In vivo toxicity against Pneumocystis carinii in immunosuppressed rats at a dose of 11 umol/kg/day administered by tail vein injection.
# Rattus norvegicus [8] = assay: Percent salinte-treated controls were evaluated against Pneumocystis carinii in immunosuppressed rats at a dose of 11 umol/kg/day administered orally.
# Rattus norvegicus [9] = assay: In vivo toxicity against Pneumocystis carinii in immunosuppressed rats at a dose of 0.3 umol/kg/day administered by tail vein injection.
# Rattus norvegicus [10] = assay: In vivo toxicity against Pneumocystis carinii in immunosuppressed rats at a dose of 5.5 umol/kg/day administered by tail vein injection.
# Rattus norvegicus [11] = assay: In vivo toxicity against Pneumocystis carinii in immunosuppressed rats at a dose of 5.5 umol/kg/day administered orally.
# Rattus norvegicus [12] = assay: Percent salinte-treated controls were evaluated against Pneumocystis carinii in immunosuppressed rats at a dose of 11 umol/kg/day administered by tail vein injection.
# Rattus norvegicus [13] = assay: Percent salinte-treated controls were evaluated against Pneumocystis carinii in immunosuppressed rats at a dose of 0.3 umol/kg/day administered by tail vein injection.
# Rattus norvegicus [14] = assay: In vivo toxicity against Pneumocystis carinii in immunosuppressed rats at a dose of 11 umol/kg/day administered orally.
# Rattus norvegicus [15] = assay: In vivo toxicity against Pneumocystis carinii in immunosuppressed rats at a dose of 2.7 umol/kg/day administered by tail vein injection.
# Rattus norvegicus [16] = assay: Percent salinte-treated controls were evaluated against Pneumocystis carinii in immunosuppressed rats at a dose of 2.7 umol/kg/day administered by tail vein injection.
# Rattus norvegicus [17] = assay: In vivo toxicity against Pneumocystis carinii in immunosuppressed rats at a dose of 13.3 umol/kg/day administered by tail vein injection.
# Rattus norvegicus [18] = assay: In vivo toxicity against Pneumocystis carinii in immunosuppressed rats at a dose of 0.03 umol/kg/day administered by tail vein injection.
# Rattus norvegicus [19] = assay: Percent salinte-treated controls were evaluated against Pneumocystis carinii in immunosuppressed rats at a dose of 0.03 umol/kg/day administered by tail vein injection.
# Rattus norvegicus [20] = assay: In vivo toxicity against Pneumocystis carinii in immunosuppressed rats at a dose of 26.6 umol/kg/day administered by tail vein injection.
# Rattus norvegicus [21] = assay: Percent salinte-treated controls were evaluated against Pneumocystis carinii in immunosuppressed rats at a dose of 39.8 umol/kg/day administered orally.
# Rattus norvegicus [22] = assay: In vivo toxicity against Pneumocystis carinii in immunosuppressed rats at a dose of 39.8 umol/kg/day administered orally.
# Rattus norvegicus [23] = assay: In vivo toxicity against Pneumocystis carinii in immunosuppressed rats at a dose of 66.3 umol/kg/day administered orally.
# Rattus norvegicus [24] = assay: Percent salinte-treated controls were evaluated against Pneumocystis carinii in immunosuppressed rats at a dose of 66.3 umol/kg/day administered orally.
# Rattus norvegicus [25] = assay: Percent salinte-treated controls were evaluated against Pneumocystis carinii in immunosuppressed rats at a dose of 13.3 umol/kg/day administered by tail vein injection; Not available
# Rattus norvegicus [26] = assay: Percent salinte-treated controls were evaluated against Pneumocystis carinii in immunosuppressed rats at a dose of 22 umol/kg/day administered orally.
# Rattus norvegicus [27] = assay: In vivo toxicity against Pneumocystis carinii in immunosuppressed rats at a dose of 22 umol/kg/day administered orally.
Structure (SMILES),Saline control (Rattus norvegicus [1]),Toxicity (Rattus norvegicus [2]),Saline control (Rattus norvegicus [3]),Toxicity (Rattus norvegicus [4]),Saline control (Rattus norvegicus [6]),Saline control (Rattus norvegicus [8]),Toxicity (Rattus norvegicus [9]),Toxicity (Rattus norvegicus [11]),Saline control (Rattus norvegicus [13]),Toxicity (Rattus norvegicus [14]),Toxicity (Rattus norvegicus [15]),Saline control (Rattus norvegicus [16]),further results
CCONC(=N)c1ccc(-c2ccc(-c3ccc(C(=N)NOCC)cc3)o2)cc1,121.5%,0,104.7%,1,,,,,,,,,
N=C(NO)c1ccc(-c2ccc(-c3ccc(/C(N)=N\O)cc3)o2)cc1,3.1%,0,0.67%,1,127%,197.6%,0,0,203.6%,0,0,54.4%,Saline control (Rattus norvegicus [5]): 42.3%; Toxicity (Rattus norvegicus [7]): 1; Toxicity (Rattus norvegicus [10]): 1; Saline control (Rattus norvegicus [12]): 1.37%
N=C(N)c1ccc(-c2ccc(-c3ccc(C(=N)N)cc3)o2)cc1 [FURAMIDINE],,,,,,,0,,6.92%,,0,7.26%,Toxicity (Rattus norvegicus [17]): 0; Toxicity (Rattus norvegicus [18]): 0; Saline control (Rattus norvegicus [19]): 26.3%; Toxicity (Rattus norvegicus [20]): 1; Saline control (Rattus norvegicus [21]): 42.3%; Toxicity (Rattus norvegicus [22]): 0; Toxicity (Rattus norvegicus [23]): 0; Saline control (Rattus norvegicus [24]): 25.2%; Saline control (Rattus norvegicus [25]): 0.79%
CONC(=N)c1ccc(-c2ccc(-c3ccc(C(=N)NOC)cc3)o2)cc1 [PAFURAMIDINE],1.82%,0,14.3%,0,264.2%,34.7%,,0,,0,,,Saline control (Rattus norvegicus [26]): 12%; Toxicity (Rattus norvegicus [27]): 0
